Patent US11147272B2, “Pyridone compounds and agricultural and horticultural fungicides comprising the same as active ingredients” (MITSUI CHEMICALS AGRO, INC., priority 2017, dated 2021)

Assays:
Plasmopara viticola = test: Test Example G: Downy mildew on vine; details: Downy mildew on vine; 250 ppm spray, 7 to 10 days after inoculation
Puccinia recondita = test: Test Example E: Brown rust on wheat; format: in vivo; details: Brown rust on wheat; control value class
Magnaporthe grisea = test: whole plant or invertebrate; format: in vivo; details: Blast on rice; control value class
Alternaia brassicicola = test: Test Example C: Alternaria sooty spot on cabbage; format: in vivo; details: Alternaria sooty spot on cabbage; control value class
From the text: Seeds of a test plant (cabbage variety: Shikidori) were planted and cultivated until the cotyledons extended.
<Control Value> Control value=100{1−(n/3)}

[1] = test system: Colletotrichum orbiculare; test: Test Example H: Anthracnose on cucumber; details: Anthracnose on cucumber; 250 ppm spray, 6 to 10 days after inoculation
Phytophthora infestans = test: whole plant or invertebrate; format: in vivo; details: Late blight on tomato; control value class
[2] = test system: Blumeria graminis f. sp. hordei; test: Test Example D: Powdery mildew on barley; details: Powdery mildew on barley; control value class
Description: Seeds of a test plant (barley variety: Akashinriki) were planted and cultivated until the first leaves appeared. In the test, the inventive compounds were dissolved into dimethyl sulfoxide-methanol mixture solution (volume ratio: 9/1), and the resultant solutions were diluted with well water to a concentration of 250 ppm to obtain the drug solutions. The drug solutions were sprayed to the test plant (2.5 ml/pot). After the drug solutions dried, conidia of Blumeria graminis f. sp. hordei were inoculated to the plant by shaking off. The degrees of disease development were investigated 6 to 10 days after the inoculation, and the effectiveness of the drug solutions was evaluated.
In Test Examples described above, the degrees of disease development were evaluated in increments of 0.05 from 0 (as no incidence of disease) to 3 (as the degree of disease development in an untreated plant group). Further, control values were calculated using the following equation based on the degree of disease development.
n=Degree of disease development in each treated group

Botrytis cinerea = test: Test Example B: Gray mold on tomato; details: Gray mold on tomato; control value class

Row | Compound | Test G control value (Plasmopara viticola) | Test E control value (Puccinia recondita) | Test A control value (Magnaporthe grisea) | Test C control value (Alternaia brassicicola) | Test H control value [1] | Test F control value (Phytophthora infestans) | Test D control value [2] | Test B control value (Botrytis cinerea)
1 | CCCOC(C)(c1cc(Cl)c(=O)n(CC)c1-c1c(F)cc(F)cc1F)C(C)C (stereo not shown) [compound 229] | H (more than 50% control value) | H (more than 50% control value) | H (more than 50% control value) | H (more than 50% control value) | H (more than 50% control value) | L (50% or less control value) | H (more than 50% control value) | H (more than 50% control value)
2 | CCn1c(-c2c(F)cc(F)cc2F)c(C#N)cc(Cl)c1=O [compound 230] | H (more than 50% control value) | L (50% or less control value) | L (50% or less control value) | L (50% or less control value) | L (50% or less control value) | L (50% or less control value) | L (50% or less control value) | L (50% or less control value)
3 | CCn1c(-c2c(F)cc(F)cc2F)c(C(O)C2CCCC2)cc(Cl)c1=O (stereo not shown) [compound 231] | H (more than 50% control value) | H (more than 50% control value) | H (more than 50% control value) | H (more than 50% control value) | H (more than 50% control value) | H (more than 50% control value) | H (more than 50% control value) | H (more than 50% control value)
4 | CCn1c(-c2c(F)cc(F)cc2F)c(C(=O)C2CCCC2)cc(Cl)c1=O [compound 232] | L (50% or less control value) | H (more than 50% control value) | H (more than 50% control value) | H (more than 50% control value) | L (50% or less control value) | L (50% or less control value) | H (more than 50% control value) | H (more than 50% control value)
5 | CCn1c(-c2ccc(C#N)cc2)c(C(O)C(C)C)cc(Cl)c1=O (stereo not shown) [compound 233] | L (50% or less control value) | L (50% or less control value) | L (50% or less control value) | H (more than 50% control value) | L (50% or less control value) | L (50% or less control value) | L (50% or less control value) | L (50% or less control value)
6 | CCn1c(-c2ccc(C#N)cc2)c(C(=O)C(C)C)cc(Cl)c1=O [compound 234] | L (50% or less control value) | L (50% or less control value) | L (50% or less control value) | H (more than 50% control value) | L (50% or less control value) | L (50% or less control value) | L (50% or less control value) | L (50% or less control value)
7 | CCn1c(-c2ccc(C#N)cc2)c(C(C)(O)C(C)C)cc(Cl)c1=O (stereo not shown) [compound 235] | L (50% or less control value) | H (more than 50% control value) | L (50% or less control value) | H (more than 50% control value) | L (50% or less control value) | L (50% or less control value) | L (50% or less control value) | L (50% or less control value)
8 | CCn1c(-c2ccc(Br)cc2Cl)c(CC(C)C)cc(Cl)c1=O [compound 236] | L (50% or less control value) | H (more than 50% control value) | H (more than 50% control value) | H (more than 50% control value) | L (50% or less control value) | L (50% or less control value) | H (more than 50% control value) | H (more than 50% control value)
9 | CCn1c(-c2ccc(Br)cc2Cl)c(CC(C)C)cc(Br)c1=O [compound 237] | L (50% or less control value) | H (more than 50% control value) | L (50% or less control value) | H (more than 50% control value) | L (50% or less control value) | L (50% or less control value) | H (more than 50% control value) | H (more than 50% control value)
10 | CCn1c(-c2ccc(OC)cc2Cl)c(CC(C)C)ccc1=O [compound 238] | H (more than 50% control value) | H (more than 50% control value) | H (more than 50% control value) | H (more than 50% control value) | H (more than 50% control value) | L (50% or less control value) | H (more than 50% control value) | H (more than 50% control value)
11 | CCn1c(-c2ccc(OC)cc2Cl)c(CC(C)C)cc(Cl)c1=O [compound 239] | L (50% or less control value) | H (more than 50% control value) | H (more than 50% control value) | H (more than 50% control value) | H (more than 50% control value) | L (50% or less control value) | H (more than 50% control value) | H (more than 50% control value)
12 | CCn1c(-c2ccc(OC)cc2Cl)c(CC(C)C)cc(Br)c1=O [compound 240] | H (more than 50% control value) | H (more than 50% control value) | H (more than 50% control value) | H (more than 50% control value) | H (more than 50% control value) | L (50% or less control value) | H (more than 50% control value) | H (more than 50% control value)
13 | CCOC(C)(c1cc(Cl)c(=O)n(CC)c1-c1c(F)cc(OC)cc1F)C(C)C (stereo not shown) [compound 241] | L (50% or less control value) | H (more than 50% control value) | H (more than 50% control value) | H (more than 50% control value) | H (more than 50% control value) | L (50% or less control value) | H (more than 50% control value) | H (more than 50% control value)
14 | CCCOC(C)(c1cc(Cl)c(=O)n(CC)c1-c1c(F)cc(OC)cc1F)C(C)C (stereo not shown) [compound 242] | L (50% or less control value) | L (50% or less control value) | L (50% or less control value) | H (more than 50% control value) | L (50% or less control value) | L (50% or less control value) | L (50% or less control value) | L (50% or less control value)
